Assay results published in patent US12655127B2, “Fused ring compound as Wee-1 inhibitor” (WIGEN BIOMEDICINE TECHNOLOGY (SHANGHAI) CO., LTD., priority 2021, dated 2026).

Target: recombinant protein Wee-1 (Homo sapiens, UniProt P30291)
Test: Inhibition of enzymatic activity of recombinant protein Wee-1 (HTRF)
Type: biochemical
Protocol: The inhibitory effect of the compounds on the enzyme activity of recombinant protein Wee-1 was determined by HTRF. The procedures are as follows:
After DMSO or serially diluted compounds (up to 200 nM, 1:5 serially diluted) and recombinant proteins were co-incubated in a kinase buffer at 37° C. for 30 min Fluorescein-PolyGAT and ATP were added, and then the reaction was started by the addition of a substrate. After incubation at room temperature for 90 min, an antibody and a detection solution were added, and after further incubation at room temperature for 60 min, fluorescence values were detected (excitation wavelength: 340 nm, emission wavelengths: 495 and 520 nm). The 520 nm/495 nm fluorescence intensity ratio value was calculated, and compared with that of the DMSO group, and then the inhibition percentages and IC50 values of the compounds were calculated.

recombinant protein Wee-1, sequence (P30291 whole entry): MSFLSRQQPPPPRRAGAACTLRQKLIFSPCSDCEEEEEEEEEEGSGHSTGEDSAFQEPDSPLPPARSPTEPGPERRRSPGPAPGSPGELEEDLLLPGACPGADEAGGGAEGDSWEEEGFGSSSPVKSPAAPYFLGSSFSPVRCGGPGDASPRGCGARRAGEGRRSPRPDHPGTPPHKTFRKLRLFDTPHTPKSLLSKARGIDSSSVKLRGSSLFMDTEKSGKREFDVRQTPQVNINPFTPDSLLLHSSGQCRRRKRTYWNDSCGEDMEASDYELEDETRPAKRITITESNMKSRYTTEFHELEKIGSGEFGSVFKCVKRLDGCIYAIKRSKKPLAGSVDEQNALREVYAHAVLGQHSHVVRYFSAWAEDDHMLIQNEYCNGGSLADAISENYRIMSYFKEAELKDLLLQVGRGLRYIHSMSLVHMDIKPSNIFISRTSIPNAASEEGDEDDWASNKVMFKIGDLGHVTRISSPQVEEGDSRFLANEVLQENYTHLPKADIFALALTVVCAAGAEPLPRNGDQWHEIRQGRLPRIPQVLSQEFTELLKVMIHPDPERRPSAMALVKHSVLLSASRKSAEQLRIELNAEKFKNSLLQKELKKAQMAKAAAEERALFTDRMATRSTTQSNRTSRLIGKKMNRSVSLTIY

IC50 [µM] | Structure (SMILES)
≤ 0.01 | CN1Cc2cc(Nc3ncc(C#N)c(Nc4cccc(P(C)(C)=O)n4)n3)cc3c2[C@H](CCC3)C1 (single isomer, unassigned) [Compound 138]
≤ 0.01 | CN1Cc2cc(Nc3ncc(C#N)c(Nc4cccc(P(C)(C)=O)n4)n3)cc3c2[C@@H](CCC3)C1 (single isomer, unassigned) [Compound 139]
≤ 0.01 | Cc1c(Nc2ncc(C#N)c(Nc3cccc(N=S(C)(C)=O)n3)n2)cc2c3c1CN(C)CC3CCC2 (stereo not drawn) [Compound 41]
≤ 0.01 | CN1Cc2c3c(cc(Nc4ncc(C#N)c(Nc5cccc(N=S(C)(C)=O)n5)n4)c2C2CC2)CCCC3C1 (stereo not drawn) [Compound 42]
≤ 0.01 | CN1Cc2c(F)c(Nc3ncc(C#N)c(Nc4cccc(N=S(C)(C)=O)n4)n3)cc3c2C(CCC3)C1 (stereo not drawn) [Compound 43]
≤ 0.01 | COc1c(Nc2ncc(C#N)c(Nc3cccc(N=S(C)(C)=O)n3)n2)cc2c3c1CN(C)CC3CCC2 (stereo not drawn) [Compound 44]
≤ 0.01 | CN1Cc2cc(Nc3ncc(C#N)c(Nc4cccc(N=S(C)(C)=O)n4)n3)nc3c2C(CCC3)C1 (stereo not drawn) [Compound 45]
≤ 0.01 | Cc1c(Nc2ncc(C#N)c(Nc3cccc(N=S(C)(C)=O)n3)n2)cc2c3c1CCCC3CN(C)C2 (stereo not drawn) [Compound 46]
≤ 0.01 | CN1Cc2cc(Nc3ncc(C#N)c(Nc4cccc(N=S(C)(C)=O)n4)n3)c(C3CC3)c3c2C(CCC3)C1 (stereo not drawn) [Compound 47]
≤ 0.01 | CN1Cc2cc(Nc3ncc(C#N)c(Nc4cccc(N=S(C)(C)=O)n4)n3)c(F)c3c2C(CCC3)C1 (stereo not drawn) [Compound 48]
0.01 to 0.05 | CN1Cc2cc(Nc3ncc(C#N)c(Nc4cccc(N=S(C)(C)=O)n4)n3)cc3c2[C@H](CC3)C1 [Compound 51]
0.01 to 0.05 | CN1Cc2cc(Nc3ncc(C#N)c(Nc4cccc(N=S(C)(C)=O)n4)n3)cc3c2[C@@H](CC3)C1 [Compound 52]
0.01 to 0.05 | CN1Cc2cc(Nc3ncc(C#N)c(Nc4cccc(N=S(C)(C)=O)n4)n3)cc3c2C(C)(CC3)C1 (stereo not drawn) [Compound 53]
0.01 to 0.05 | CN1Cc2cc(Nc3ncc(C#N)c(Nc4cccc(N=S(C)(C)=O)n4)n3)cc3c2[C@](C)(CC3)C1 [Compound 54]
0.01 to 0.05 | CN1Cc2cc(Nc3ncc(C#N)c(Nc4cccc(N=S(C)(C)=O)n4)n3)cc3c2[C@@](C)(CC3)C1 [Compound 55]
0.01 to 0.05 | CN1Cc2cc(Nc3ncc(C#N)c(Nc4cccc(N=S(C)(C)=O)n4)n3)cc3c2C(CCCC3)C1 (stereo not drawn) [Compound 56]

IC50 [µM] | Structure (SMILES)
≤ 0.01 | CN1Cc2cc(Nc3ncc(C#N)c(Nc4cccc(N=S(C)(C)=O)n4)n3)cc3c2[C@H](CCCC3)C1 [Compound 57]
≤ 0.01 | CN1Cc2cc(Nc3ncc(C#N)c(Nc4cccc(N=S(C)(C)=O)n4)n3)cc3c2[C@@H](CCCC3)C1 [Compound 58]
≤ 0.01 | CN1Cc2cc(Nc3ncc(C#N)c(Nc4cccc(N=S(C)(C)=O)n4)n3)cc3c2C(C)(CCCC3)C1 (stereo not drawn) [Compound 59]
≤ 0.01 | CN1Cc2cc(Nc3ncc(C#N)c(Nc4cccc(N=S(C)(C)=O)n4)n3)cc3c2[C@](C)(CCCC3)C1 [Compound 60]
≤ 0.01 | CN1Cc2cc(Nc3ncc(C#N)c(Nc4cccc(N=S(C)(C)=O)n4)n3)cc3c2[C@@](C)(CCCC3)C1 [Compound 61]
≤ 0.01 | CN1Cc2cc(Nc3ncc(C#N)c(Nc4cccc(N=S(C)(C)=O)n4)n3)cc3c2C(CCCCC3)C1 (stereo not drawn) [Compound 62]
≤ 0.01 | CN1Cc2cc(Nc3ncc(C#N)c(Nc4cccc(N=S(C)(C)=O)n4)n3)cc3c2C(C)(CCCCC3)C1 (stereo not drawn) [Compound 63]
≤ 0.01 | CN1Cc2cc(Nc3ncc(C#N)c(Nc4cccc(N=S(C)(C)=O)n4)n3)cc3c2C(CCS3)C1 (stereo not drawn) [Compound 65]
≤ 0.01 | CN1Cc2cc(Nc3ncc(C#N)c(Nc4cccc(N=S(C)(C)=O)n4)n3)cc3c2C(COC3)C1 (stereo not drawn) [Compound 66]
≤ 0.01 | CN1Cc2cc(Nc3ncc(C#N)c(Nc4cccc(N=S(C)(C)=O)n4)n3)cc3c2C(CSC3)C1 (stereo not drawn) [Compound 67]
≤ 0.01 | CN1Cc2cc(Nc3ncc(C#N)c(Nc4cccc(N=S(C)(C)=O)n4)n3)cc3c2C(C1)OCC3 (stereo not drawn) [Compound 68]
≤ 0.01 | CN1Cc2cc(Nc3ncc(C#N)c(Nc4cccc(N=S(C)(C)=O)n4)n3)cc3c2C(C1)SCC3 (stereo not drawn) [Compound 69]
≤ 0.01 | CN1Cc2cc(Nc3ncc(C#N)c(Nc4cccc(N=S(C)(C)=O)n4)n3)cc3c2C(CO3)C1 (stereo not drawn) [Compound 70]
≤ 0.01 | CN1Cc2cc(Nc3ncc(C#N)c(Nc4cccc(N=S(C)(C)=O)n4)n3)cc3c2C(CS3)C1 (stereo not drawn) [Compound 71]
≤ 0.01 | CN1Cc2cc(Nc3ncc(C#N)c(Nc4cccc(N=S(C)(C)=O)n4)n3)cc3c2C(C1)OC3 (stereo not drawn) [Compound 72]
≤ 0.01 | CN1Cc2cc(Nc3ncc(C#N)c(Nc4cccc(N=S(C)(C)=O)n4)n3)cc3c2C(C1)SC3 (stereo not drawn) [Compound 73]

The next lines start with the compound.

Structure (SMILES) | IC50 [µM]
CCN1Cc2cc(Nc3ncc(C#N)c(Nc4cccc(N=S(C)(C)=O)n4)n3)cc3c2C(CCC3)C1 (stereo not drawn) [Compound 7] | ≤ 0.01
CCN1Cc2cc(Nc3ncc(C#N)c(Nc4cccc(N=S(C)(C)=O)n4)n3)cc3c2[C@H](CCC3)C1 [Compound 8] | ≤ 0.01
CCN1Cc2cc(Nc3ncc(C#N)c(Nc4cccc(N=S(C)(C)=O)n4)n3)cc3c2[C@@H](CCC3)C1 [Compound 9] | ≤ 0.01
CC(C)N1Cc2cc(Nc3ncc(C#N)c(Nc4cccc(N=S(C)(C)=O)n4)n3)cc3c2C(CCC3)C1 (stereo not drawn) [Compound 10] | ≤ 0.01
CC(C)N1Cc2cc(Nc3ncc(C#N)c(Nc4cccc(N=S(C)(C)=O)n4)n3)cc3c2[C@H](CCC3)C1 [Compound 11] | ≤ 0.01
CC(C)N1Cc2cc(Nc3ncc(C#N)c(Nc4cccc(N=S(C)(C)=O)n4)n3)cc3c2[C@@H](CCC3)C1 [Compound 12] | ≤ 0.01
CS(C)(=O)=Nc1cccc(Nc2nc(Nc3cc4c5c(c3)CN(C3CC3)CC5CCC4)ncc2C#N)n1 (stereo not drawn) [Compound 13] | ≤ 0.01
CS(C)(=O)=Nc1cccc(Nc2nc(Nc3cc4c5c(c3)CN(C3CC3)C[C@H]5CCC4)ncc2C#N)n1 [Compound 14] | ≤ 0.01
CS(C)(=O)=Nc1cccc(Nc2nc(Nc3cc4c5c(c3)CN(C3CC3)C[C@@H]5CCC4)ncc2C#N)n1 [Compound 15] | ≤ 0.01
CS(C)(=O)=Nc1cccc(Nc2nc(Nc3cc4c5c(c3)CN(CCO)CC5CCC4)ncc2C#N)n1 (stereo not drawn) [Compound 16] | ≤ 0.01
CN(C)CCN1Cc2cc(Nc3ncc(C#N)c(Nc4cccc(N=S(C)(C)=O)n4)n3)cc3c2C(CCC3)C1 (stereo not drawn) [Compound 17] | ≤ 0.01
CS(C)(=O)=Nc1cccc(Nc2nc(Nc3cc4c5c(c3)CN(CC3CC3)CC5CCC4)ncc2C#N)n1 (stereo not drawn) [Compound 18] | ≤ 0.01
CN1CC2CCCc3cc(Nc4ncc(C#N)c(Nc5cccc(N=S(C)(C)=O)n5)n4)cc(c32)C12CC2 (stereo not drawn) [Compound 19] | ≤ 0.01
CN1CC2CCCc3cc(Nc4ncc(C#N)c(Nc5cccc(N=S(C)(C)=O)n5)n4)cc(c32)C1(C)C (stereo not drawn) [Compound 20] | ≤ 0.01
CN1C[C@H]2CCCc3cc(Nc4ncc(C#N)c(Nc5cccc(N=S(C)(C)=O)n5)n4)cc(c32)C1(C)C [Compound 21] | ≤ 0.01
CN1C[C@@H]2CCCc3cc(Nc4ncc(C#N)c(Nc5cccc(N=S(C)(C)=O)n5)n4)cc(c32)C1(C)C [Compound 22] | ≤ 0.01
CN1Cc2cc(Nc3ncc(C#N)c(Nc4cccc(N=S(C)(C)=O)n4)n3)cc3c2C(CCC3)C12CC2 (stereo not drawn) [Compound 23] | ≤ 0.01

Structure (SMILES) | IC50 [µM]
CN1Cc2cc(Nc3ncc(C#N)c(Nc4cccc(N=S(C)(C)=O)n4)n3)cc3c2[C@H](CCC3)C1(C)C [Compound 24] | ≤ 0.01
CN1Cc2cc(Nc3ncc(C#N)c(Nc4cccc(N=S(C)(C)=O)n4)n3)cc3c2[C@@H](CCC3)C1(C)C [Compound 25] | ≤ 0.01
CN1Cc2cc(Nc3ncc(C#N)c(Nc4cccc(N=S(C)(C)=O)n4)n3)cc3c2C(C1)CC1(CC1)C3 (stereo not drawn) [Compound 26] | ≤ 0.01
CN1Cc2cc(Nc3ncc(C#N)c(Nc4cccc(N=S(C)(C)=O)n4)n3)cc3c2C(C1)CC(C)(C)C3 (stereo not drawn) [Compound 27] | ≤ 0.01
CN1Cc2cc(Nc3ncc(C#N)c(Nc4cccc(N=S(C)(C)=O)n4)n3)cc3c2C(C1)CC(F)(F)C3 (stereo not drawn) [Compound 28] | ≤ 0.01
CN1Cc2cc(Nc3ncc(C#N)c(Nc4cccc(N=S(C)(C)=O)n4)n3)cc3c2C(C1)C1(CC3)CC1 (stereo not drawn) [Compound 29] | ≤ 0.01
CN1Cc2cc(Nc3ncc(C#N)c(Nc4cccc(N=S(C)(C)=O)n4)n3)cc3c2C(C1)C(C)(C)CC3 (stereo not drawn) [Compound 30] | ≤ 0.01
CN1Cc2cc(Nc3ncc(C#N)c(Nc4cccc(N=S(C)(C)=O)n4)n3)cc3c2C(C1)C(F)(F)CC3 (stereo not drawn) [Compound 31] | ≤ 0.01
CN1Cc2cc(Nc3ncc(C#N)c(Nc4cccc(N=S(C)(C)=O)n4)n3)cc3c2C(CCC32CC2)C1 (stereo not drawn) [Compound 32] | ≤ 0.01
CN1Cc2cc(Nc3ncc(C#N)c(Nc4cccc(N=S(C)(C)=O)n4)n3)cc3c2C(CCC3(C)C)C1 (stereo not drawn) [Compound 33] | ≤ 0.01
CN1Cc2cc(Nc3ncc(C#N)c(Nc4cccc(N=S(C)(C)=O)n4)n3)cc3c2C(CCC3(F)F)C1 (stereo not drawn) [Compound 34] | ≤ 0.01
CN1Cc2cc(Nc3ncc(C#N)c(Nc4cccc(N=S(C)(C)=O)n4)n3)cc3c2C(CC=C3)C1 (stereo not drawn) [Compound 35] | ≤ 0.01
CN1Cc2cc(Nc3ncc(C#N)c(Nc4cccc(N=S(C)(C)=O)n4)n3)cc3c2C(C=CC3)C1 (stereo not drawn) [Compound 36] | ≤ 0.01
CN1Cc2cc(Nc3ncc(C#N)c(Nc4cccc(N=S(C)(C)=O)n4)n3)cc3c2C(CC2CC32)C1 (stereo not drawn) [Compound 37] | ≤ 0.01
CN1Cc2cc(Nc3ncc(C#N)c(Nc4cccc(N=S(C)(C)=O)n4)n3)cc3c2C(C1)C1CC1C3 (stereo not drawn) [Compound 38] | ≤ 0.01
CN1Cc2cc(Nc3ncc(C#N)c(Nc4cccc(N=S(C)(C)=O)n4)n3)cc3c2C2(CC2CC3)C1 (stereo not drawn) [Compound 39] | ≤ 0.01
CN1Cc2nc(Nc3ncc(C#N)c(Nc4cccc(N=S(C)(C)=O)n4)n3)cc3c2C(CCC3)C1 (stereo not drawn) [Compound 40] | ≤ 0.01
